# Experimental data from PubChem BioAssay AID1963833 (Molecular Pharmacology Branch, DTP, NCI, 2024).
# pIC50: −log10 of the molar value.
# Test system: 883617-216-R-J1-PDC complex spheroid viability
# Test: Anticancer human tumor 883617-216-R-J1-PDC patient-derived bladder carcinoma cell line growth inhibition [POLQ]
# Conditions: for pIC50: curve of first compound; for viability, T/C: stronger effect = lower value
# Description: Multicellular complex tumor spheroid response to Polymerase (POL) inhibitors (novobiocin, ART-558, RP6685) in combination with a variety of drugs and investigational agents in selected tumor cell lines
# The POL inhibitors (novobiocin, ART-558, and RP6685) were evaluated both individually and in combination with standard of care and investigational anticancer small molecules within a complex spheroid model of solid tumors. . Complex spheroids include a stromal component modeled by human endothelial cells (HUVEC) and fibroblasts modeled by human mesenchymal stem cells (MSCs). The concentration ranges selected for each drug and investigational agent were based upon clinically achievable concentrations if the clinical Cmax of the agent was known.
# Compounds. The drugs and investigational agents: novobiocin (NSC847541), ART-558 (NSC835418), RP-6685 (NSC848927), peposertib (NSC802822), ceralasertib (NSC780249), elimusertib (NSC800525), camonsertib (NSC841442), AZD-1390 (NSC803789), olaparib (NSC753686), talazoparib (NSC767125), rucaparib (NSC756644), sotorasib (NSC818433), MRTX-1133 (NSC836407), SN-38 (NSC673596), topotecan (NSC609699), epotoside (NSC141540), doxorubicin (NSC123127), gemcitabine (NSC613327), 5-fluorouracil (NSC19893), paclitaxel (NSC125973), vemurafenib (NSC761431), MSA-2 (NSC828583), SN-011 (NSC837082), adavosertib (NSC754352), prexasertib (NSC758257), carboplatin (NSC241240) and oxaliplatin (NSC266046), were obtained from the National Cancer Institute (NCI) Developmental Therapeutics Program Chemical Repository (21). The FDA-approved anticancer drug set is available from the Developmental Therapeutics Program at https://dtp.cancer.gov/organization/dscb/obtaining/. […] The stock solutions were prepared in dimethyl sulfoxide (DMSO, Sigma-Aldrich, St. Louis, MO, cat. D2650), except for the platinum compounds which were prepared in saline (Quality Biological, Gaithersburg, MD, cat. 114-055-101), at 800-fold the tested concentration and stored at -70 degrees C prior to their use. All drugs and investigational agents were tested over a range starting from a high concentration at or near the clinical Cmax and decreasing in half-log increments. If the clinical Cmax for an agent had not been determined, the highest concentration tested was 10 microM, except for SN-38, which was tested at a high concentration of 1 microM.
# Cell Culture. All cells were maintained in an incubator at 37 degrees C and 5% CO2 with 95% humidity. The PDC lines were cultured according to standard operating procedures established by the NCI PDMR (https://pdmr.cancer.gov). Table 3 of the manuscript, lists the cell lines along with the number of the three cell types plated to form the mct-spheroids and media for tumor cell growth. After thawing, all PDC lines, except 997537-175-T-J1-PDC and 415267-285-R-J2-PDC, were cultured in Matrigel-coated flasks prepared with a working solution of 1X Ham's F-12 nutrient mix, without supplementation (Thermo Fisher Scientific, cat. 11765054), 100 U/mL penicillin-streptomycin (Thermo Fisher Scientific, cat. 15140122), and 2.5% Matrigel (Corning Inc., Corning, NY, cat. 354248) for the first three passages. The two PDC lines 997537-175-T-J1-PDC and 415267-285-R-J2-PDC were cultured on uncoated flasks. The 857933-349-R-J2-PDC line was cultured in 6C/Colon 1B media containing advanced DMEM/F-12 (Thermo Fisher Scientific, cat. 12634028), 10 mM HEPES (Thermo Fisher Scientific, cat. 15630080), 1X GlutaMAX supplement (Thermo Fisher Scientific, cat. 35050061), 0.1 mg/mL primocin (InvivoGen, San Diego, CA, cat. ant-pm-2), 10% defined fetal bovine serum, heat inactivated (HyClone Laboratories Inc., Logan, UT, cat. SH30070.03HI), 50% L-WRN conditioned media (ATCC, cat. CRL-3276), 1.25 mM N-Acetyl-L-cysteine (Sigma-Aldrich, cat. A9165), 10 mM nicotinamide (Sigma-Aldrich, cat. N0636), 1X B-27 supplement (Thermo Fisher Scientific, cat. 17504044), 1X N-2 supplement (Thermo Fisher Scientific, cat. […]
# 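Also: spheroids exposed to compounds for seven days before readout.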
# 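For viability, T/C in this document: 100% = DMSO vehicle control viability.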
smiles,measurement,setting,value
COc1cccc(OCCCN)c1-c1cc(Nc2cnc(C#N)cn2)n[nH]1 + COC1C(OC(N)=O)C(O)C(Oc2ccc3c(O)c(NC(=O)c4ccc(O)c(CC=C(C)C)c4)c(=O)oc3c2C)OC1(C)C,pIC50,second compound 0.0316 µM,7.41
same,pIC50,second compound 0.1 µM,7.48
same,pIC50,second compound 0.316 µM,7.23
same,pIC50,second compound 1 µM,7.61
same,pIC50,second compound 3.16 µM,7.67
same,pIC50,second compound 10 µM,7.44
same,"viability, T/C","second compound 0.0316 µM, first compound 0.00316 µM",83.3%
same,"viability, T/C","second compound 0.0316 µM, first compound 0.01 µM",73.8%
same,"viability, T/C","second compound 0.0316 µM, first compound 0.0316 µM",46.9%
same,"viability, T/C","second compound 0.0316 µM, first compound 0.1 µM",42.4%
same,"viability, T/C","second compound 0.0316 µM, first compound 0.316 µM",28.1%
same,"viability, T/C","second compound 0.0316 µM, first compound 1 µM",23.4%
same,"viability, T/C","second compound 0.1 µM, first compound 0.00316 µM",91%
same,"viability, T/C","second compound 0.1 µM, first compound 0.01 µM",76.8%
same,"viability, T/C","second compound 0.1 µM, first compound 0.0316 µM",46.5%
same,"viability, T/C","second compound 0.1 µM, first compound 0.1 µM",40.4%
same,"viability, T/C","second compound 0.1 µM, first compound 0.316 µM",27.6%
same,"viability, T/C","second compound 0.1 µM, first compound 1 µM",27.1%
same,"viability, T/C","second compound 0.316 µM, first compound 0.00316 µM",85.6%
same,"viability, T/C","second compound 0.316 µM, first compound 0.01 µM",67.3%
same,"viability, T/C","second compound 0.316 µM, first compound 0.0316 µM",66.3%
same,"viability, T/C","second compound 0.316 µM, first compound 0.1 µM",37.6%
same,"viability, T/C","second compound 0.316 µM, first compound 0.316 µM",32.5%
same,"viability, T/C","second compound 0.316 µM, first compound 1 µM",30%
same,"viability, T/C","second compound 1 µM, first compound 0.00316 µM",90.8%
same,"viability, T/C","second compound 1 µM, first compound 0.01 µM",69.9%
same,"viability, T/C","second compound 1 µM, first compound 0.0316 µM",42.6%
same,"viability, T/C","second compound 1 µM, first compound 0.1 µM",35.4%
same,"viability, T/C","second compound 1 µM, first compound 0.316 µM",27.7%
same,"viability, T/C","second compound 1 µM, first compound 1 µM",27.2%
same,"viability, T/C","second compound 3.16 µM, first compound 0.00316 µM",88.2%
same,"viability, T/C","second compound 3.16 µM, first compound 0.01 µM",62.2%
same,"viability, T/C","second compound 3.16 µM, first compound 0.0316 µM",41.4%
same,"viability, T/C","second compound 3.16 µM, first compound 0.1 µM",37.5%
same,"viability, T/C","second compound 3.16 µM, first compound 0.316 µM",39.6%
same,"viability, T/C","second compound 3.16 µM, first compound 1 µM",27.4%
same,"viability, T/C","second compound 10 µM, first compound 0.00316 µM",92.2%
same,"viability, T/C","second compound 10 µM, first compound 0.01 µM",75.2%
same,"viability, T/C","second compound 10 µM, first compound 0.0316 µM",50.9%
same,"viability, T/C","second compound 10 µM, first compound 0.1 µM",36.2%
same,"viability, T/C","second compound 10 µM, first compound 0.316 µM",35%
same,"viability, T/C","second compound 10 µM, first compound 1 µM",25.7%
